This note sets out measurements from US12577232B2, “N-heterocycle substituted tryptamine derivatives and methods of using” (ENVERIC B[…] INC., priority 2024, dated 2026).

Values joined by “and” are separate entries in the source; they are usually repeats but may differ in a detail not shown here. Equal values may be shown once. Read-outs that look alike come from different tables or passages of the source.

Series [1] has as its target T1, 5-HT2A receptor (Homo sapiens, UniProt P28223).
T1 construct: purchased PerkinElmer ES-313-M400UA
Description: 5-HT2A receptor radioligand competition assay (SPA, [3H]ketanserin). It is filed as binding. The conditions noted are these: 1 nM [3H]ketanserin; membranes containing 5-HT2A; read-out: 5-HT2A, Ki. How it is done: Competition assays were performed as for 5-HT1A assays with the following differences. […] Determination of non-specific binding was carried out in the presence of […] of spiperone (S7395-250MG, Sigma-Aldrich). Equilibrium binding constant for ketanserin (Kd) was determined from saturation binding curves using the ‘one-site saturation binding analysis’ method in GraphPad PRISM software (Version 9.2.0).
(In a radioligand displacement assay an active substance lowers the binding of a labelled ligand.)

For series [2], the target named is T2, 5-HT1A receptor (Homo sapiens, UniProt P08908).
T2 construct: purchased Perkin Elmer 6110501400UA
T2 sequence (P08908 1-422): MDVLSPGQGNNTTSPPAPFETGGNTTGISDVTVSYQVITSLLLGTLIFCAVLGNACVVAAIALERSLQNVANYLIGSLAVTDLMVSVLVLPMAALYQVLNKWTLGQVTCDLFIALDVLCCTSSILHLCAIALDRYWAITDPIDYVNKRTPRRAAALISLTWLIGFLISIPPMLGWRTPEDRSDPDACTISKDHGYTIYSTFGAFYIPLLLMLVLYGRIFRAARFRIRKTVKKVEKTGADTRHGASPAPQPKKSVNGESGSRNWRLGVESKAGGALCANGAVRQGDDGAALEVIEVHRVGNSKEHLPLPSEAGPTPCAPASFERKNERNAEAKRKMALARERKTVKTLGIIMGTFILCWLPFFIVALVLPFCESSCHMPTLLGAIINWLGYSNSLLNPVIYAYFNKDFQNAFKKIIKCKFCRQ
Description: 5-HT1A receptor radioligand competition assay (SPA, [3H]8-hydroxy-DPAT). It is filed as binding. The settings on record: 0.5 nM hot 8-hydroxy-DPAT; membranes containing 5-HT1A. Here is the method: 5-HT1A receptor. […] After incubation, the samples were read on a MicroBeta 2 Microplate Counter (perkinelmer.com). Non-specific binding was carried out in the presence of 100 μM of metergoline (M3668-500MG, Sigma-Aldrich). Equilibrium binding constant for 8-hydroxy-DPAT (KD) was determined from a saturation binding curve using one-site saturation binding analysis from GraphPad PRISM software (Version 9.2.0). Test compound was dissolved to 100 mM in dimethylsulfoxide (DMSO), and dilutions were carried out in assay buffer. […] Ki values were calculated from the competition displacement data using the competitive binding analysis from GraphPad PRISM software. […] Conversely, blank preparations lacking any drug (simply termed ‘DMSO’ samples) were used as negative controls, in addition to those containing tryptophan which is not known to bind the 5-HT1A receptor.

The nature of series [3]: Mouse plasma pharmacokinetics (PK) survey. It is filed as in vivo. The settings on record: for AUC: male, C57BL6, mouse, read-out: AUCt0-tlast; for AUC / Cmax: ip; for Cmax: mouse. How it is done: The purpose of the study was to gain insight into the pharmacokinetic (PK) behaviour of drugs in rodents. In some contexts, drug exposure and other PK parameters may be linked to the onset and/or degree of drug efficacy. Toward the goal of assessing PK behaviour, objectives included the collection of plasma from male mice at various times after (1) a single ‘low’ IP (intraperitoneal) dose (4 mg/kg), and (2) a single ‘high’ IP dose (10 mg/kg) of drug for pharmacokinetic monitoring. The experiment was designed to enable the determination of key parameters (e.g., Cmax, AUC) and was conducted in partnership with Inotiv (Boulder, Colorado; www.inotiv.com; Studies 3533-2302132 and 3533-2302538).
The study which took part in two phases (No. 3533-2302132 and 3533-2302538) was conducted by CRO Inotiv (Boulder, CO) and was performed in accordance with the test facility standard operation procedures (SOPs), the World Health Organization Quality Practices in Basic Biomedical Research guidelines, and in compliance with all US state and federal regulations, including USDA Animal Welfare Act 9 CFR Parts 1-3. Federal Register 39129, Jul. 22, 1993. All mice were male, belonging to stain C57BL6 (supplier Envigo). Upon arrival at the facility, the mice were 6 weeks old and were acclimated 7 days prior to injection with food and water ad libitum (3 animals/cage).
Three cohorts of mice were included (n=6 per cohort): (1) control (vehicle treatment), (2) 4 mg/kg compound (XV), and (3) 10 mg/kg compound (XV). On day 0 of the study, animals were randomized into cohorts based on body weight. Dosing (i.p. dose route) was performed on Day 1. Sampling of plasma was performed under anesthesia (inhaled isoflurane) on 3 of 6 animals per cohort at 6 time points (15 min 30 min, 1 h, 2 h, 4 h, and 6 h post-dose) followed by sacrifice at 8 h post-dose, ex-sanguination and final plasma collection. Whole blood (100 μL) was collected for plasma preparation using K2EDTA on ice (centrifugation within 5 min of collection), for a final plasma volume of 50 μL. Samples were stored at −80° C. until analysis.
Bioanalytical analysis of plasma was carried out using standard LC-MS/MS procedures. Prior to analysis of plasma, drug-specific quantification metrics (e.g., standard curve, LOD, Rt) were pre-established using authentic standard (>95%). Calculated concentrations (ng/mL) of analyte were used to determine PK parameters (Cmax, AUC) within the limits of detection (LOD).

Series [4] addresses T1, 5-HT2A receptor. Description: Functional cell-based 5-HT2A assay, agonism mode (CHO-K1/5-HT2A, Fluo-8 calcium flux). The conditions noted are these: CHO-K1/5-HT2A cells. (A change in cytosolic calcium serves as a functional read-out for many receptors and channels.)
Description: Herein, functional, cell-based assays were conducted to determine (1) agonist potency and efficacy of drugs at the 5-HT2A receptor (agonist mode), and (2) antagonist potency at the 5-HT2A receptor (antagonist mode).
All cells were grown and maintained as a monolayer in Ham's F12 nutrient mix supplemented with 10% fetal bovine serum (FBS) and 400 μg/mL geneticin (G418) all from ThermoFisher Scientific and used according to the manufacturer's instructions. Cells were cultured and incubated at 37° C. in a humidified oxygen atmosphere with 5% CO2. To evaluate the activation of 5-HT2A signal transduction, cells were first seeded in tissue culture-treated, black-walled, clear-bottom 96-well plates (Thermo Scientific) at a density of 40,000 cells/well in 100 pl Ham's F12 nutrient mix supplemented with 2% FBS. Cells were cultured for 24 h in a humidified incubator at 37° C. and 5% CO2. Cells were then loaded with Fluo-8 calcium indicator dye for 1 h at 37° C. and an additional 30 min at room temperature as per the manufacturer's protocol. […] Kinetic increases in intracellular calcium levels were measured immediately after addition of test compounds every 6.4 s for a total of 3 min using the FlexStation 3 multimode microplate reader and SoftMax Pro 7.1 analysis software (Molecular Devices, moleculardevices.com). […] EC50 values were calculated from the normalized data from GraphPad PRISM software.
Where [5] appears, read: plasma, 4 mg/kg, male C57BL6 mice, plasma, 4 mg/kg i.p.
The mark [6] stands for this setting: plasma, 10 mg/kg, male C57BL6 mice, plasma, 10 mg/kg i.p.
[7] abbreviates: male C57BL6 mice, plasma, 4 mg/kg i.p.
[8] abbreviates: male C57BL6 mice, plasma, 10 mg/kg i.p.

T1 sequence (P28223 whole entry): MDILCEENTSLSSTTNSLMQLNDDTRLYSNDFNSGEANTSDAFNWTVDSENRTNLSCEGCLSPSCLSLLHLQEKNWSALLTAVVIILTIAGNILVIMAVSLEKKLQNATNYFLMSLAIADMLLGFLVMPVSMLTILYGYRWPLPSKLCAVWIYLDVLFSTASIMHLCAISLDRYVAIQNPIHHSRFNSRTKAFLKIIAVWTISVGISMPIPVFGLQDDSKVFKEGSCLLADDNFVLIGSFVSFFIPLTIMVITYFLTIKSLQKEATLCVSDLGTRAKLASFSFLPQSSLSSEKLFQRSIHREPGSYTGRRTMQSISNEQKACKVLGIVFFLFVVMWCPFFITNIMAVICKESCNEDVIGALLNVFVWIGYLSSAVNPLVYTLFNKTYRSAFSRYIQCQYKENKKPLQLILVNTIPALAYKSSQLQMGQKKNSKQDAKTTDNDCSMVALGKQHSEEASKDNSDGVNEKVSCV

Usually Ki stands for a measure of affinity in units of concentration, obtained from inhibition or displacement. As usually defined, the Cmax is the highest concentration seen after dosing. With `CN(C)CCc1c[nH]c2cc(N3CCC3)ccc12` [Compound (XII)], the figures for the Ki in series [1] and in series [2] were 23.7 µM and 20.8 µM, respectively. The figures for the AUC in series [3] (setting [5]) and in series [3] (setting [6]) were 39.7 ± 3 ng·h/mL and 145 ± 5.3 ng·h/mL, respectively. Further, the Cmax worked out at 92.8 ± 17.2 ng/mL in series [3] (setting [7]) and 302 ± 33.7 ng/mL in series [3] (setting [8]).
Take `CN(C)CCc1c[nH]c2cc(F)cc(N3CCOCC3)c12` [Compound (XV)]: the values for the Ki in series [1] and in series [2] were 0.72 µM and 1.83 µM, respectively. The “engagement at the 5-HT2A receptor, agonist mode” value in series [4] was “agonism”. In addition, the AUC in series [3] (setting [5]) was 241 ± 71.6 ng·h/mL; in series [3] (setting [6]), 590 ± 30.9 ng·h/mL. Besides, the detectability in plasma result in series [3] (most mice, eight hours post-administration, i.p.) was “still detectable”. The Cmax in series [3] (setting [7]) was 101 ± 4.9 ng/mL; in series [3] (setting [8]), 459 ± 16.4 ng/mL.
In the case of `CC(C)N(C)CCc1c[nH]c2cc(N3CCOCC3)c(F)cc12` [Compound (XVII)], in series [1], the inhibition constant Ki is 8.3 µM and 8.34 µM. In series [3] (male C57BL6 mice, plasma, 4 mg/kg i.p., 4 mg/kg), the AUCt0-tlast was 27.2 ± 1.6 ng·h/mL. Besides, the values for the AUC in series [3] (setting [5]) and in series [3] (setting [6]) were 24.2 ± 1.6 ng·h/mL and 164 ± 7.2 ng·h/mL, respectively. Also, the Cmax in series [3] (setting [7]) turned out to be 62.1 ± 3.9 ng/mL; in series [3] (setting [8]) it was 384 ± 14.2 ng/mL.
For the compound `CN(C)CCc1c[nH]c2cc(N3CCCC3)cc(F)c12` [Compound (XVIII)], the inhibition constant (Ki) in series [1] amounted to 6.13 µM; in series [2] it was 18.1 µM. The figures for the AUC in series [3] (setting [5]) and in series [3] (setting [6]) were 19.6 ± 0.7 ng·h/mL and 76.4 ± 11.5 ng·h/mL, respectively. Moreover, the values for the Cmax in series [3] (setting [7]) and in series [3] (setting [8]) were 8.8 ± 1.2 ng/mL and 87.5 ± 8.5 ng/mL, respectively.
